This note sets out measurements from patent US20230203056A1, “HETEROCYCLIC COMPOUNDS” (Hoffmann-La Roche Inc., priority 2020, published 2023).

For the experiment, the target named is T1, MAGL (Homo sapiens, UniProt Q99685).
T1 sequence (Q99685 1-303): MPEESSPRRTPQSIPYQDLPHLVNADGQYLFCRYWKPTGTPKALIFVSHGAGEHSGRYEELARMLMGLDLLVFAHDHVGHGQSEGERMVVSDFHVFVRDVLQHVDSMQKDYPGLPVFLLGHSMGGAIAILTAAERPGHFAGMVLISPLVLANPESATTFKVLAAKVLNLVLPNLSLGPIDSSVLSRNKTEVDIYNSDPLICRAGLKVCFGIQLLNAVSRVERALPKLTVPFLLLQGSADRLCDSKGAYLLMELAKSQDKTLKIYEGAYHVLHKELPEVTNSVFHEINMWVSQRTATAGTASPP
In words: 2-AG assay: MAGL inhibitory activity, hydrolysis of 2-arachidonoylglycerol to arachidonic acid followed by mass spectrometry. The conditions noted are these: 50 pM MAGL, 8 μM 2-arachidonoylglycerol, 15 min preincubation, 30 min incubation at RT. It counts as biochemical. The protocol:
Compounds were profiled for MAGL inhibitory activity by determining the enzymatic activity by following the hydrolysis of the natural substrate 2-arachidonoylglycerol resulting in arachidonic acid, which can be followed by mass spectrometry. This assay is hereinafter abbreviated “2-AG assay”.
The 2-AG assay was carried out in 384 well assay plates (PP, Greiner Cat #784201) in a total volume of 20 μL. Compound dilutions were made in 100% DMSO (VWR Chemicals 23500.297) in a polypropylene plate in 3-fold dilution steps to give a final concentration range in the assay from 12.5 μM to 0.8 pM. 0.25 μL compound dilutions (100% DMSO) were added to 9 μL MAGL in assay buffer (50 mM TRIS (GIBCO, 15567-027), 1 mM EDTA (Fluka, 03690-100 mL), 0.01% (v/v) Tween. After shaking, the plate was incubated for 15 min at RT. To start the reaction, 10 μL 2-arachidonoylglycerol in assay buffer was added. The final concentrations in the assay was 50 pM MAGL and 8 μM 2-arachidonoylglyerol. After shaking and 30 min incubation at RT, the reaction was quenched by the addition of 40 μL of acetonitrile containing 4 μM of d8-arachidonic acid. The amount of arachidonic acid was traced by an online SPE system (Agilent Rapidfire) coupled to a triple quadrupole mass spectrometer (Agilent 6460). A C18 SPE cartridge (G9205A) was used in an acetonitrile/water liquid setup. The mass spectrometer was operated in negative electrospray mode following the mass transitions 303.1→259.1 for arachidonic acid and 311.1→267.0 for d8-arachidonic acid. The activity of the compounds was calculated based on the ratio of intensities [arachidonic acid/d8-arachidonic acid].

For orientation: IC50 means the concentration at which inhibition is half-maximal. `O=C(N1CC(OCc2ccc(C(F)(F)F)cc2F)C1)N1C[C@@H]2CCc3cn[nH]c3[C@@H]2C1` (racemic) [Example 1, [3-[[2-Fluoro-4-(trifluoromethyl)phenyl]methoxy]azetidin-1-yl]-[rac-(5aR,8aS)-4,5,5a,6,8,8a-hexahydro-1H-pyrrolo[3,4-g]indazol-7-yl]methanone] came in with an IC50 of 8 nM.

With `O=C(N1CC(OCc2ccc(C(F)(F)F)cc2F)C1)N1C[C@@H]2COc3cn[nH]c3[C@@H]2C1` (racemic) [Example 2, [3-[[2-Fluoro-4-(trifluoromethyl)phenyl]methoxy]azetidin-1-yl]-[rac-(1S,9R)-7-oxa-3,4,11-triazatricyclo[7.3.0.0^2,6]dodeca-2(6),4-dien-1l-yl]methanone], the IC50 is 67 nM.

As for `O=C(N1C[C@@H]2COc3cn[nH]c3[C@@H]2C1)N1CC2(CC(Cc3ccc(F)cc3F)C2)C1` (single isomer, unassigned) [Example 5, (−)- or (+)-[6-[(2,4-Difluorophenyl)methyl]-2-azaspiro[3.3]heptan-2-yl]-[(1S,9R)-7-oxa-3,4,11-triazatricyclo[7.3.0.0^2,6]dodeca-2(6),4-dien-1l-yl]methanone], half-maximal inhibition (IC50) required 488 nM. Consider `O=C(N1C[C@H]2COc3cn[nH]c3[C@H]2C1)N1CC2(CC(Cc3ccc(F)cc3F)C2)C1` (single isomer, unassigned) [Example 6, (+)- or (−)-[6-[(2,4-Difluorophenyl)methyl]-2-azaspiro[3.3]heptan-2-yl]-[(1R,9S)-7-oxa-3,4,11-triazatricyclo[7.3.0.0^2,6]dodeca-2(6),4-dien-11-yl]methanone], for which the IC50 was found to be 9 nM. Regarding `O=C(N1CC(OCc2ccc(C(F)(F)F)cc2F)C1)N1C[C@@H]2CCc3nn[nH]c3[C@@H]2C1` (single isomer, unassigned) [Example 7, (−)- or (+)-[3-[[2-Fluoro-4-(trifluoromethyl)phenyl]methoxy]azetidin-1-yl]-[(5aR,8aS)-4,5,5a,6,8,8a-hexahydro-1H-pyrrolo[3,4-e]benzotriazol-7-yl]methanone], the IC50 was determined as 50 nM. In the case of `O=C(N1CC(OCc2ccc(C(F)(F)F)cc2F)C1)N1C[C@H]2CCc3nn[nH]c3[C@H]2C1` (single isomer, unassigned) [Example 8, (+)- or (−)-[3-[[2-Fluoro-4-(trifluoromethyl)phenyl]methoxy]azetidin-1-yl]-[(5aS,8aR)-4,5,5a,6,8,8a-hexahydro-1H-pyrrolo[3,4-e]benzotriazol-7-yl]methanone], the midpoint of inhibition, the IC50, lay at 523 nM. The same measure for `O=C(N1CC(OCc2ccc(C(F)(F)F)cc2F)C1)N1C[C@@H]2OCc3nn[nH]c3[C@@H]2C1` (single isomer, unassigned) [Example 9, (−)- or (+)-[3-[[2-Fluoro-4-(trifluoromethyl)phenyl]methoxy]azetidin-1-yl]-[(1S,9R)-8-oxa-3,4,5,11-tetrazatricyclo[7.3.0.02,6]dodeca-2(6),4-dien-11-yl]methanone]: 2700 nM; for `O=C(N1CC(OCc2ccc(C(F)(F)F)cc2F)C1)N1C[C@@H]2c3[nH]nnc3CO[C@@H]2C1` (single isomer, unassigned) [Example 10, (+)- or (−)-[3-[[2-Fluoro-4-(trifluoromethyl)phenyl]methoxy]azetidin-1-yl]-[(1R,9S)-8-oxa-3,4,5,11-tetrazatricyclo[7.3.0.02,6]dodeca-2(6),4-dien-1l-yl]methanone]: 1220 nM. `O=C(N1CC(c2ccc(C3(C(F)(F)F)CC3)cc2)C1)N1C[C@@H]2COc3cn[nH]c3[C@@H]2C1` [Example 3, (−)- or (+)-[(1S,9R)-7-Oxa-3,4,11-triazatricyclo[7.3.0.0^2,6]dodeca-2(6),4-dien-11-yl]-[3-[4-[1-(trifluoromethyl)cyclopropyl]phenyl]azetidin-1-yl]methanone] registered an IC50 of 13 nM. As to `O=C(N1CC(c2ccc(C3(C(F)(F)F)CC3)cc2)C1)N1C[C@H]2COc3cn[nH]c3[C@H]2C1` [Example 4, (+)- or (−)-[(1R,9S)-7-Oxa-3,4,11-triazatricyclo[7.3.0.0^2,6]dodeca-2(6),4-dien-11-yl]-[3-[4-[1-(trifluoromethyl)cyclopropyl]phenyl]azetidin-1-yl]methanone], the IC50 worked out at 917 nM.
